The structures appear in SMILES notation.

One assay concerns NL-RLuc virus (recombinant HIV NL4-3 with Renilla Luciferase) in MT-2 cells. The assay is described as follows: Inhibition of HIV replication (NL-RLuc virus in MT-2 cells, luciferase readout). It counts as cell-based, human immunodeficiency virus (HIV). To be noted: MT2, 120 h, NL-RLuc virus infecting MT-2 cells, 5 days of incubation, 10% FBS, luciferase quantitation; at least 2 experiments. An excerpt: Inhibition of HIV Replication:
A recombinant NL-RLuc proviral clone was constructed in which a section of the nef gene from NL4-3 was replaced with the Renilla Luciferase gene. This virus is fully infectious and can undergo multiple cycles of replication in cell culture. In addition, the luciferous reporter provides a simple and easy method for quantitating the extent of virus growth and consequently, the antiviral activity of test compounds. The plasmid pNLRLuc contains the proviral NL-Rluc DNA cloned into pUC 18 at the PvuII site. The NL-RLuc virus was prepared by transfection of 293T cells with the plasmid pNLRLuc. Transfections were performed using the LipofectAMINE PLUS kit from Invitrogen (Carlsbad, Calif.) according to the manufacturer and the virus generated was titered in MT-2 cells. For susceptibility analyses, the titrated virus was used to infect MT-2 cells in the presence of compound, and after 5 days of incubation, cells were processed and quantitated for virus growth by the amount of expressed luciferase. Assay media was RPMI 1640 supplemented with 10% heat inactivated fetal bovine serum (FBS), 100 units/ml penicillin G/100 units/ml streptomycin, 10 mM HEPES buffer pH 7.55 and 2 mM L-glutamine. The results from at least 2 experiments were used to calculate the EC50 values. Luciferase was quantitated using the Dual Luciferase kit from Promega (Madison, Wis.). Susceptibility of viruses to compounds was determined by incubation in the presence of serial dilutions of the compound. The 50% effective concentration (EC50) was calculated by using the exponential form of the median effect equation where (Fa)=1/[1+(ED50/drug conc.)^m] (Johnson V A, Byington R T. Infectivity Assay. In Techniques in HIV Research. ed. Aldovini A, Walker B D. 71-76. New York: Stockton Press. 1990).
As for `Cc1nc2cc3nn2c(c1[C@H](OC(C)(C)C)C(=O)O)N1CCC(C)(CC1)OCCCCCc1cc(F)ccc1CN(C1CC1)C3` [Example 62, (2S)-2-(tert-Butoxy)-2-{11-cyclopropyl-16-fluoro-4,25-dimethyl-24-oxa-1,5,7,8,11-pentaazapentacyclo[23.2.2.1^6,^9.0^2,^7.0^13,^18]triaconta-2,4,6(30),8,13(18),14,16-heptaen-3-yl}acetic acid], the 50% effective concentration (EC50) was determined as 41 nM. In the case of `Cc1nc2cc3nn2c(c1[C@H](OC(C)(C)C)C(=O)O)N1CCC(C)(CC1)OCCCCOC1(CCCCC1)c1cn(nn1)C3` [Example 8, (2S)-2-(tert-Butoxy)-2-{4′,22′-dimethyl-16′,21′-dioxa-1′,5′,7′,8′,11′,12′,13′-heptaazaspiro[cyclohexane-1,15′-pentacyclo[20.2.2.1^6,^9.1^11,^14.0^2,^7]octacosane]-2′,4′,6′(28′),8′,12′,14′(27′)-hexaen-3′-yl}acetic acid], the concentration giving a half-maximal response (EC50) turned out to be 111 nM. Still for that read-out and setting: next, `Cc1nc2cc3nn2c(c1[C@H](OC(C)(C)C)C(=O)O)N1CCC(C)(CC1)OCCCCOc1cccc(c1)-c1cn(nn1)C3` [Example 6, (2S)-2-(tert-Butoxy)-2-{4,26-dimethyl-20,25-dioxa-1,5,7,8,11,12,13-heptaazahexacyclo[24.2.2.1^6,^9.1^11,^14.1^15,^19.0^2,^7]tritriaconta-2,4,6(33),8,12,14(32),15(31),16,18-nonaen-3-yl}acetic acid]: 80 nM; `Cc1nc2cc3nn2c(c1[C@H](OC(C)(C)C)C(=O)O)N1CCC(C)(CC1)OCCCCOCc1cn(nn1)C3` [Example 2, (2S)-2-(tert-Butoxy)-2-{4,22-dimethyl-16,21-dioxa-1,5,7,8,11,12,13-heptaazapentacyclo[20.2.2.1^6,^9.1^11,^14.0^2,^7]octacosa-2,4,6(28),8,12,14(27)-hexaen-3-yl}acetic acid]: 2690 nM.

For the compound `Cc1ccc2c(c1)O[C@@H](C)CCCCOC1(C)CCN(CC1)c1c([C@H](OC(C)(C)C)C(=O)O)c(C)nc3cc(nn13)COC2` [Example 38, (2S)-2-(tert-Butoxy)-2-[(20S)-4,16,20,26-tetramethyl-11,19,25-trioxa-1,5,7,8-tetraazapentacyclo[24.2.2.1^6,^9.0^2,^7.0^13,^18]hentriaconta-2,4,6(31),8,13(18),14,16-heptaen-3-yl]acetic acid], the EC50 is 2 nM.

Turning to `Cc1nc2cc3nn2c(c1[C@H](OC(C)(C)C)C(=O)O)N1CCC(C)(CC1)OCCCCCc1cccc(c1)COC3` [Example 59, (2S)-2-(tert-Butoxy)-2-{4,24-dimethyl-11,23-dioxa-1,5,7,8-tetraazapentacyclo[22.2.2.1^6,^9.1^13,^17.0^2,^7]triaconta-2,4,6(30),8,13(29),14,16-heptaen-3-yl}acetic acid], the EC50 worked out at 16 nM. On the same count and under the same terms, next, `Cc1cc(CN2CC=CCOC3(C)CCN(CC3)c3c([C@H](OC(C)(C)C)C(=O)O)c(C)nc4cc(nn34)CNC(=O)C2=O)ccc1F` [Example 18, (2S)-2-(tert-Butoxy)-2-[14-[(4-fluoro-3-methylphenyl)methyl]-4,20-dimethyl-12,13-dioxo-19-oxa-1,5,7,8,11,14-hexaazatetracyclo[18.2.2.1^6,^9.0^2,^7]pentacosa-2,4,6(25),8,16-pentaen-3-yl]acetic acid]: 122 nM.

Regarding `Cc1ccc2c(c1)O[C@@H](C)CCCCOC1(C)CCN(CC1)c1c([C@H](OC(C)(C)C)C(=O)O)c(C)nc3cc(nn13)CN(C1CC1)C2` [Example 64, (2S)-2-(tert-Butoxy)-2-[(20S)-11-cyclopropyl-4,16,20,26-tetramethyl-19,25-dioxa-1,5,7,8,11-pentaazapentacyclo[24.2.2.1^6,^9.0^2,^7.0^13,^18]hentriaconta-2,4,6(31),8,13(18),14,16-heptaen-3-yl]acetic acid], the concentration giving a half-maximal response (EC50) turned out to be 12 nM. Still for that read-out and setting: under `Cc1ccc2c(c1)O[C@@H](C)CCCCOC1(C)CCN(CC1)c1c([C@H](OC(C)(C)C)C(=O)O)c(C)nc3cc(nn13)CO[C@@H]2C` (single isomer, unassigned) [Example 56] stands 8 nM.

Still in this assay, the particulars now being: NL-RLuc virus infecting MT-2 cells, 5 days of incubation, 10% FBS, luciferase quantitation; at least 2 experiments; read-out: EC50.
As for `Cc1nc2cc3nn2c(c1[C@H](OC(C)(C)C)C(=O)O)N1CCC(C)(CC1)OCCCC[C@H](C)Oc1cc(F)ccc1CCC3` [Example 40, (2S)-2-(tert-Butoxy)-2-[(20S)-16-fluoro-4,20,26-trimethyl-19,25-dioxa-1,5,7,8-tetraazapentacyclo[24.2.2.1^6,^9.0^2,^7.0^13,^18]hentriaconta-2,4,6(31),8,13(18),14,16-heptaen-3-yl]acetic acid], the concentration for a half-maximal effect (EC50) stood at 31 nM.

Still in this assay, the particulars now being: {}.
As for `CCCC1CCCCOC2(C)CCN(CC2)c2c([C@H](OC(C)(C)C)C(=O)O)c(C)nc3cc(nn23)COCc2ccc(C)cc2O1` (stereo partly drawn) [Example 45, (2S)-2-(tert-butoxy)-2-{4,16,26-trimethyl-20-propyl-11,19,25-trioxa-1,5,7,8-tetraazapentacyclo[24.2.2.1^6,^9.0^2,^7.0^13,^18]hentriaconta-2,4,6(31),8,13(18),14,16-heptane-3-yl}acetic acid], the concentration giving a half-maximal response (EC50) turned out to be 35 nM. On the same count and under the same terms, next, `CCCC1CCCCOC2(C)CCN(CC2)c2c([C@H](OC(C)(C)C)C(=O)O)c(C)nc3cc(nn23)COCc2ccc(C)cc2O1` (stereo partly drawn) [Example 44, (2S)-2-(tert-Butoxy)-2-{4,16,26-trimethyl-20-propyl-11,19,25-trioxa-1,5,7,8-tetraazapentacyclo[24.2.2.1^6,^9.0^2,^7.0^13,^18]hentriaconta-2,4,6(31),8,13(18),14,16-heptaen-3-yl}acetic acid]: 5 nM; `Cc1ccc(C2CCCCOC3(C)CCN(CC3)c3c([C@H](OC(C)(C)C)C(=O)O)c(C)nc4cc(nn34)CO2)cc1` (stereo partly drawn) [Example 46, (2S)-2-(tert-butoxy)-2-[4,18-dimethyl-12-(4-methylphenyl)-11,17-dioxa-1,5,7,8-tetraazatetracyclo[16.2.2.1^6,^9.0^2,^7]tricosa-2,4,6(23),8-tetraen-3-yl]acetic acid]: 735 nM; `Cc1nc2cc3nn2c(c1[C@H](OC(C)(C)C)C(=O)O)N1CCC(C)(CC1)OCCCCOC(C(C)C)c1cn(nn1)C3` (stereo partly drawn) [Example 11, (2S)-2-(tert-Butoxy)-2-[4,22-dimethyl-15-(propan-2-yl)-16,21-dioxa-1,5,7,8,11,12,13-heptaazapentacyclo[20.2.2.1^6,^9.1^11,^14.0^2,^7]octacosa-2,4,6(28),8,12,14(27)-hexaen-3-yl]acetic acid]: 204 nM. Same read-out and setting: next, `CCCC1CCCCOC2(C)CCN(CC2)c2c([C@H](OC(C)(C)C)C(=O)O)c(C)nc3cc(nn23)COCc2cc(F)ccc2O1` (stereo partly drawn) [Example 49, (2S)-2-(tert-butoxy)-2-{15-fluoro-4,26-dimethyl-20-propyl-11,19,25-trioxa-1,5,7,8-tetraazapentacyclo[24.2.2.1^6,^9.0^2,^7.0^13,^18]hentriaconta-2,4,6(31),8,13(18),14,16-heptaen-3-yl}acetic acid]: 5 nM; `CCCC1CCCCOC2(C)CCN(CC2)c2c([C@H](OC(C)(C)C)C(=O)O)c(C)nc3cc(nn23)COCc2cc(F)ccc2O1` (stereo partly drawn) [Example 50, (2S)-2-(tert-butoxy)-2-{15-fluoro-4,26-dimethyl-20-propyl-11,19,25-trioxa-1,5,7,8-tetraazapentacyclo[24.2.2.1^6,^9.0^2,^7.0^13,^18]hentriaconta-2,4,6(31),8,13(18),14,16-heptaen-3-yl}acetic acid]: 19 nM.

In general, EC50 refers to the concentration at which the effect is half-maximal.

Source of the values: US9273067B2, “Pyrazolopyrimidine macrocycles as inhibitors of human immunodeficiency virus replication” (BRISTOL-MYERS SQUIBB COMPANY, priority 2014, dated 2016).
